Data on two molecules can be found in patent publication US20090156473A1, “PHARMACEUTICAL COMPOSITION FOR THE TREATMENT OF VIRAL INFECTIONS AND/OR TUMOR DISEASES BY INHIBITING PROTEIN FOLDING AND PROTEIN BREAKDOWN” (Virologik GmbH, priority 2006, published 2009).

Test [1] deals with HeLaSS6 cells transfected with subgenomic HIV-1 expression vector pNLenv1. Description: Time kinetics of Gag processing and virus release, Western blot of cell and virus fractions. The test is classed as cell-based. The following applies: 100 nM 17-AAG vs inhibitor-free medium. As to the method: Time kinetics were studied for biochemical analysis of the influence of 17-AAG on the kinetics of Gag processing and virus release. The experimental details of cultivation, transfection, media exchange and time kinetics are reported in Example 4a/b. For this purpose there were used cultures of HeLaSS6 cells that had been transfected with pNLenv1 (Schubert et al., 1995). Following incubation in 17-AAG-containing medium (100 nM 17-AAG) or inhibitor-free medium, the kinetic studies were begun after distinct washing steps and aliquoting of the preparations. Aliquot cell cultures were taken at each time and separated into cell, virus and cell-culture supernatant fractions by centrifugation. The HIV proteins were separated by SDS PAGE, transferred onto PVDF membranes and then made visible on x-ray films by antibody-mediated chemiluminescence.
HeLa cells (ATCC CCL2) were cultivated in Dulbeccos' modified Eagle's medium (DMEM) with 10% fetal calf serum, 2 mM L-glutamine, 100 U/mL penicillin and 100 μg/mL streptomycin.
HeLa cells (ATCC CCL2) were transfected using a mixture of pNLΔenv and lipofectamine2000 in OPTI-MEM. A media exchange was undertaken after 8 hours of incubation at 37° C. and 5% CO2. […] The HIV-specific and cell-specific proteins were detected via specific antibodies (to Hsp70; Hsp90; p24; PR55; β-actin). […]
In general terms: A western blot detects proteins with antibodies after separation by electrophoresis.

In a further test the test system is X4-trophic HI viruses. Put plainly: HLAC model (human tonsil cells) infected with X4-trophic HI viruses, RT assay of supernatants. The test is classed as cell-based, HIV-1. The following applies: for virus replication of X4-trophic HI viruses (RT data): tonsil A; for X4-trophic HIV replication (RT data): tonsil B. As for the experimental part:
Human tonsils were macerated and transferred into 96-well plates. After one day of incubation, the cells were infected with X4-trophic HI viruses, mixed with the corresponding inhibitors and washed on the following day. These and also the subsequent steps are described in detail under Example 4c-d. At each kinetic point, 150 μL of medium was removed and stored at −80° C. until measurement at RT. The medium that was again added contained the inhibitor concentrations necessary for the special preparation.
After 15 days, the proportion of functional HI viruses formed was determined by means of RT assays (see Example 4e) of the stored supernatants.
Tonsil cells were cultivated in RPMI 1640 with 15% (V/V) fetal calf serum, 2 mM L-glutamine, 100 U/mL penicillin, 100 μg/mL streptomycin, 2.5 μg/mL Fungizone, 1 mM sodium pyrovate, 1% MEM non-essential amino acid solution and 50 μg/mL gentanamycin (“tonsil medium”).
To produce virus preparations, plasmid DNA of molecular HIV-1 DNA was transfected into HeLa cells using the calcium phosphate precipitation method. For this purpose, confluent cultures of HeLa cells (5×10^6 cells) were incubated with 25 μg of plasmid DNA in calcium phosphate crystals, produced according to a method of Graham and van der Eb (1973), then subjected to glycerol shock according to Gorman et al. (1982). To obtain concentrated virus preparations, the cell culture supernatants were harvested two days after transfection. Thereafter the cells as well as their constituents were separated by centrifugation (1000 g, 5 minutes, 4° C.) and filtration (0.45 μm pore size). Virus particles were pelleted by ultracentrifugation (Beckman SW55 rotor, 1.5 hours, 35,000 rpm, 10° C.) and then resuspended in 1 mL of DMEM medium. The virus preparations were sterilized by filtration (0.45 μm pore size) and were frozen in portions (−80° C.). Individual virus preparations were standardized by determination of the reverse transcriptase activity, specifically on the basis of an already described test (Willey et al., 1988), using [32P]-TTP incorporation into an oligo(dT)-poly(A) template.
The tonsil tissue was washed in PBS, then cleaned of blood clots and cut into pieces measuring 1 to 2 mm^2 with the scalpel. Individual cells were obtained by mechanical pressing through a filter gauze. Following centrifugation of the isolated cells (5 minutes, 1200 rpm), the cells were counted, seeded into 96-well plates and incubated overnight at 37° C. and 5% CO2. Infection of the cells was achieved by addition of 10 ng of X4-trophic HIV stocks and simultaneous application of the corresponding inhibitor concentrations. On the following day, 50 μL of supernatant was withdrawn (“1 dpi”) and stored at −80° C. Thereupon the cells were centrifuged (5 minutes, 1200 rpm) and a further 50 μL of supernatant was withdrawn. Following resuspension of the cells in 100 μL of tonsil medium, this washing step was repeated two times. Tonsil medium with the corresponding inhibitor concentrations was added and then the cells were re-incubated at 37° C. and 5% CO2. On days 3, 6, 9 and 12, 150 μL of medium was withdrawn and stored at −80° C., and 150 μL of medium with the corresponding inhibitor concentrations was added. On day 15, only 150 μL of supernatant was removed and stored at −80° C., after which the cells were discarded.
The tonsil supernatants stored at −80° C. were assayed by determination of the reverse transcriptase activity, specifically on the basis of an already described test (Willey et al., 1988), using [32P]-TTP incorporation into an oligo(dT)-poly(A) template.

Regarding `C=CCNC1=C2C[C@@H](C)C[C@H](OC)[C@H](O)[C@@H](C)/C=C(\C)[C@H](OC(N)=O)[C@@H](OC)/C=C\C=C(/C)C(=O)NC(=CC1=O)C2=O` [17-AAG], in test [1], the “Gag processing in the virus fraction” value is “reduced Gag processing” and the “Hsp70 expression in the cell fraction” value is recorded as “intensified Hsp70 expression”. Further, the “virus replication of X4-trophic HI viruses in the HLAC model” value in the test with X4-trophic HI viruses (summary statement of Example 3, RT assays after 15 days) is reported as “inhibits the virus replication”. Further, in the test on X4-trophic HI viruses (10 nM 17-AAG alone), the “virus replication of X4-trophic HI viruses (RT data)” value (“virus replication … (RT data)” for short) is “not clearly influenced” and the “X4-trophic HIV replication (RT data)” value was “distinct reduction of virus replication”. Besides, in the test with X4-trophic HI viruses (single inhibitor at 1 nM), the “virus replication … (RT data)” value was “not clearly influenced” and the “X4-trophic HIV replication (RT data)” value is listed as “did not exhibit any influence”.
In the case of `CC(C)C[C@H](NC(=O)[C@H](Cc1ccccc1)NC(=O)c1cnccn1)B(O)O` [PS341], in the test with X4-trophic HI viruses (single inhibitor at 1 nM), the “virus replication … (RT data)” value is listed as “not clearly influenced” and the “X4-trophic HIV replication (RT data)” value is “did not exhibit any influence”.
